# Data published in patent US20100204258A1, “METHODS AND COMPOSITIONS FOR MODULATING INSULIN SECRETION AND GLUCOSE METABOLISM” (The Trustees of Columbia University in the City of New York, priority 2007, published 2010).
# Legend:
# Lewis rats = experiment: IPGTT after 2 mg/kg i.v. of VMAT2 ligands (FIG. 10); assay type: in vivo, rat; conditions: 2 mg/kg body weight i.v.; for blood glucose excursion during IPGTT: vs vehicle (DMSO)
# Description: Experimental animals. All animal studies were conducted as described in Example 1.
# Anaesthetized rats were administered TBZ, THB, butamol, reserpine, emetine, or Compound 6 at a dose of approximately 2-3 mg/kg body weight by intravenous (i.v.) injection using the penile vein. TBZ, THB, butamol, reserpine, emetine, and Compound 6 were each separately dissolved in neat sterile dimethylsulfoxide (DMSO) and diluted (always more than 10 fold) in sterile saline. Rats received injections of vehicle alone (10% DMSO in saline) or reserpine (in saline). Animals recovered fully before receiving IPGTT.
# Blood glucose, insulin, glucagon and intraperitoneal glucose tolerance tests measurements. Blood samples were collected from a superficial blood vessel in the tails of the rats following 6 hours of fasting between 12:00 noon and 2:00 p.m. The fasting blood glucose (BG) levels of the rats were measured using an Accu-Check blood glucose monitoring system (Roche Diagnostics, Sommerville, N.J.). Intraperitoneal glucose tolerance tests (IPGTT) were performed in 6 hour fasting un-anaesthetized animals. Briefly, after baseline BG measurements, animals received an intraperitoneal (i.p.) injection of 1 gram glucose/kilogram body weight. To minimize stress during the procedure, rats were handled by the same operator during acclimatization and later during weighing and IPGTT. Blood samples (approximately 30 μl) were collected at baseline and then again 15, 30, 45, 60, 90, and 120 minutes following i.p. glucose. BG concentrations were measured immediately on these samples and the remainder processed.
# human islets = experiment: Glucose-stimulated insulin secretion of purified human cadaveric islets ex vivo; assay type: cell-based; conditions: absence of high glucose stimulation; data not shown
# Description: Human islet tissue and glucose-stimulated insulin secretion. The islet tissue used in these studies was obtained with institutional review board approval. Pancreas digestion and islet isolation were performed using minor modifications of the Edmonton purification protocol. (Shapiro, […] al. “Islet […] in seven patients with type I diabetes mellitus using a glucocortoid-free immunosuppressive regimen.” New England Journal of Medicine 343(4):230-8, (2000)) The determination of islet cell mass, viability, and purity were also performed. Purified islets were cultured in CMRL 1066 culture media with 10% fetal bovine serum at 37° C. in humidified air (5% CO2) for 18 to 24 hours. The human islet insulin secretory response was performed according to a procedure described by the Edmonton group. (Id.) Briefly, after an overnight culture, islets were incubated with either low or high concentrations of glucose for 2 hours at 37° C. and 5% CO2. The supernatant was collected for insulin measurement. Insulin concentrations in these experiments were analyzed with a human insulin enzyme-linked immunosorbent assay (ELISA) kit (ALPCO Insulin ELISA kit, Windham, N.H.). In some experiments TBZ, DTBZ or epinephrine was added to the cultures before glucose stimulation.
compound,measurement,setting,value
"COc1cc2c(cc1OC)C1CC(=O)C(CC(C)C)CN1CC2 (centres unmarked) [TBZ, tetrabenazine]",blood glucose levels during IPGTT,Lewis rats; around sixty minutes following glucose challenge,returned to control or near normal levels
same,area under the curve in the IPGTT,Lewis rats; following glucose challenge,smaller area under the curve
same,blood glucose excursion during IPGTT,Lewis rats,reduce the blood glucose excursion
same,blood glucose excursion during IPGTT,Lewis rats; listed as Tetrabenazine,reduced the blood glucose excursion
same,insulin secretion of human islets,human islets,not observed
